According to ChEMBL document CHEMBL3351580, “Pyrano-isochromanones as IL-6 inhibitors: synthesis, in vitro and in vivo antiarthritic activity” (J Med Chem, 2014):
The source made the active and inactive calls. The calls are words filed in the database; no cut-off is given here.

How the values were obtained:
[1] = tested on: Mus musculus; test: Antiarthritic activity in BALB/c mouse assessed as reduction in SRBC-induced blood IL2 level administered orally once daily for 14 days measured 4 hrs post last dose by ELISA method; type: functional, organism-based
[2] = tested on: Mus musculus; test: Antiinflammatory activity in BALB/c mouse assessed as serum TNFalpha level at 10 mg/kg, po qd for 5 days followed by LPS challenge 1 hr after last compound dose on fifth day and measured 4 hrs post LPS challenge by ELISA method (reference value: 717 +/- 218 pg/mL); type: functional
[3] = tested on: Mus musculus; test: Antiarthritic activity in DBA/1J mouse collagen-induced arthritis model assessed as reduction in anticollagen antibody IgG2a level at 3 to 30 mg/kg, po administered once daily for 49 days starting from onset of disease and measured after 14 days of disease onset by ELISA method; type: functional, organism-based
[4] = target: Cytochrome P450 2D6 (Homo sapiens, UniProt P10635); test: Activation of CYP2D6 (unknown origin) assessed as increase in enzyme activity at 10 uM; type: ADME
[5] = target: CYP3A4 (Homo sapiens, UniProt P08684); test: Inhibition of CYP3A4 (unknown origin) at 10 uM; type: ADME
[6] = tested on: Mus musculus; test: Antiinflammatory activity in BALB/c mouse assessed as serum IL6 level at 10 mg/kg, po qd for 5 days followed by LPS challenge 1 hr after last compound dose on fifth day and measured 4 hrs post LPS challenge by ELISA method (reference value: 410 +/- 95 pg/mL); type: functional
[7] = tested on: Mus musculus; test: Antiarthritic activity in BALB/c mouse assessed as reduction in SRBC-induced blood IFNgamma level administered orally once daily for 14 days measured 4 hrs post last dose by ELISA method; type: functional, organism-based
[8] = tested on: THP-1; test: Inhibition of LPS-induced nitric oxide production in human THP1 cells at 10 uM after 24 hrs by Griess assay; type: functional; details: THP-1, 24 h
[9] = tested on: Mus musculus; test: Antiarthritic activity in DBA/1J mouse collagen-induced arthritis model assessed as reduction in paw swelling at 30 mg/kg, po administered once daily for 49 days starting from onset of disease; type: functional; details: 1176 h
[10] = tested on: Mus musculus; test: Antiarthritic activity in DBA/1J mouse collagen-induced arthritis model assessed as reduction in anticollagen antibody IgG2a level at 3 to 30 mg/kg, po administered once daily for 49 days starting from onset of disease and measured after 49 days of disease onset by ELISA method; type: functional, organism-based
[11] = target: T1, Cytochrome P450 1A2 (Homo sapiens, UniProt P05177); test: Activation of CYP1A2 (unknown origin) assessed as increase in enzyme activity at 10 uM; type: ADME
T1 sequence (P05177 whole entry): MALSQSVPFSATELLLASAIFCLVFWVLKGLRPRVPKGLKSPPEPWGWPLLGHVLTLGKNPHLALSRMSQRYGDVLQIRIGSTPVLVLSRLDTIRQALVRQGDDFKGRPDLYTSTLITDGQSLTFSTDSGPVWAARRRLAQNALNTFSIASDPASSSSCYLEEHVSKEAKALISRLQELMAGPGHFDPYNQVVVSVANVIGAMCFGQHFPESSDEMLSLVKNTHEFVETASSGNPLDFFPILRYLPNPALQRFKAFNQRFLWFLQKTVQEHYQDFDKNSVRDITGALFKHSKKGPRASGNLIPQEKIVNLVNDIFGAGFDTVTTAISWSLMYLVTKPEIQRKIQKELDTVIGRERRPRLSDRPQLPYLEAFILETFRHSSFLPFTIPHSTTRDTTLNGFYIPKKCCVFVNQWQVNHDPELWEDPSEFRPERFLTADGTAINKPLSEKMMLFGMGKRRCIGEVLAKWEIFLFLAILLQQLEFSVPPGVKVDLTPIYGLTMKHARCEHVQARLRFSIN

[12] = Solubility in SGF solution; type: physicochemical
[13] = tested on: Mus musculus; test: Antiarthritic activity in DBA/1J mouse collagen-induced arthritis model assessed as reduction in anticollagen antibody IgG1 level at 3 to 30 mg/kg, po administered once daily for 49 days starting from onset of disease and measured after 49 days of disease onset by ELISA method; type: functional, organism-based
[14] = Solubility in SIF solution; type: physicochemical
[15] = tested on: THP-1; test: Cytotoxicity against human THP1 cells after 24 hrs by MTT assay; type: cell-based; details: THP-1, 24 h
[16] = tested on: Mus musculus; test: Antiinflammatory activity in BALB/c mouse assessed as serum nitric oxide level at 10 mg/kg, po qd for 5 days followed by LPS challenge 1 hr after last compound dose on fifth day and measured 4 hrs post LPS challenge by Griess assay (reference value: 6.95 +/- 1.81 uM); type: functional
[17] = tested on: THP-1; test: Inhibition of LPS-induced IL6 production in human THP1 cells after 24 hrs; type: functional, cell-based; details: THP-1, 24 h
[18] = Apparent permeability from apical to basolateral side in human Caco2 cells; type: ADME, cell-based; details: Caco-2
[19] = tested on: Mus musculus; test: Antiarthritic activity in DBA/1J mouse collagen-induced arthritis model assessed as reduction in TNFalpha level at 3 to 30 mg/kg, po administered once daily for 49 days starting from onset of disease and measured after 3 to 49 days of disease onset by ELISA method; type: functional, organism-based
[20] = tested on: Mus musculus; test: Immunosuppressive activity in BALB/c mouse assessed as reduction in SRBC-induced humoral immunity by measuring IgG level at 3 to 30 mg/kg, po administered once daily for 14 days measured 4 hrs post last dose; type: functional, organism-based
[21] = target: CYP2C9 (Homo sapiens, UniProt P11712); test: Inhibition of CYP2C9 (unknown origin) at 10 uM; type: ADME
[22] = tested on: Mus musculus; test: Antiinflammatory activity in BALB/c mouse assessed as serum TNFalpha level at 100 mg/kg, po qd for 5 days followed by LPS challenge 1 hr after last compound dose on fifth day and measured 4 hrs post LPS challenge by ELISA method (reference value: 717 +/- 218 pg/mL); type: functional
[23] = tested on: Mus musculus; test: Antiarthritic activity in BALB/c mouse assessed as reduction in SRBC-induced blood IL4 level administered orally once daily for 14 days measured 4 hrs post last dose by ELISA method; type: functional, organism-based
[24] = Efflux ratio in human Caco2 cells; type: ADME, cell-based; details: Caco-2
[25] = Solubility in water; type: physicochemical
[26] = Solubility in PBS buffer; type: physicochemical
[27] = tested on: THP-1; test: Inhibition of LPS-induced TNFalpha production in human THP1 cells after 24 hrs; type: functional, cell-based; details: THP-1, 24 h
[28] = tested on: Mus musculus; test: Antiarthritic activity in DBA/1J mouse collagen-induced arthritis model assessed as reduction in IL-1beta level at 3 to 30 mg/kg, po administered once daily for 49 days starting from onset of disease and measured after 3 to 49 days of disease onset by ELISA method; type: functional, organism-based
[29] = Therapeutic index, ratio of cytotoxic IC50 for human THP1 cells by MTT assay to IC50 for inhibition of LPS-induced IL6 production in human THP1 cells; type: cell-based, THP-1; details: read-out: Ratio IC50
[30] = tested on: B-cell; test: Inhibition of LPS-induced cell proliferation of B cells (unknown origin) at 10 uM after 72 hrs by MTT assay; type: functional
[31] = tested on: Mus musculus; test: Antiarthritic activity in DBA/1J mouse collagen-induced arthritis model assessed as reduction in anticollagen antibody IgG1 level at 3 to 30 mg/kg, po administered once daily for 49 days starting from onset of disease and measured after 14 days of disease onset by ELISA method; type: functional, organism-based

Chain of Cytochrome P450 2D6 (P10635 whole entry): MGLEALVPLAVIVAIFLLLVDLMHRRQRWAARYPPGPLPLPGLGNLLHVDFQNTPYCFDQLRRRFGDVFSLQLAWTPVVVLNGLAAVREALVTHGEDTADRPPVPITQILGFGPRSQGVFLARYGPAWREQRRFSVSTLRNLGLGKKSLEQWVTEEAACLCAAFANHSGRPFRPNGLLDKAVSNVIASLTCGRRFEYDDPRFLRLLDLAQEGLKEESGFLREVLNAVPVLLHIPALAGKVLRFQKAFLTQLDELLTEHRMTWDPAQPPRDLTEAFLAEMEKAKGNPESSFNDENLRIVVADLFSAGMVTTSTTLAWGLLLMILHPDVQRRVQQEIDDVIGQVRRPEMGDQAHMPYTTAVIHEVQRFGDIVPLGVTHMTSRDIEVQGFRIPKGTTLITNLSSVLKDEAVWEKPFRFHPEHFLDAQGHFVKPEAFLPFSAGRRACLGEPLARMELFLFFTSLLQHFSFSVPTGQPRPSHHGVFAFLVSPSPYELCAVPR
Chain of CYP3A4 (P08684 whole entry): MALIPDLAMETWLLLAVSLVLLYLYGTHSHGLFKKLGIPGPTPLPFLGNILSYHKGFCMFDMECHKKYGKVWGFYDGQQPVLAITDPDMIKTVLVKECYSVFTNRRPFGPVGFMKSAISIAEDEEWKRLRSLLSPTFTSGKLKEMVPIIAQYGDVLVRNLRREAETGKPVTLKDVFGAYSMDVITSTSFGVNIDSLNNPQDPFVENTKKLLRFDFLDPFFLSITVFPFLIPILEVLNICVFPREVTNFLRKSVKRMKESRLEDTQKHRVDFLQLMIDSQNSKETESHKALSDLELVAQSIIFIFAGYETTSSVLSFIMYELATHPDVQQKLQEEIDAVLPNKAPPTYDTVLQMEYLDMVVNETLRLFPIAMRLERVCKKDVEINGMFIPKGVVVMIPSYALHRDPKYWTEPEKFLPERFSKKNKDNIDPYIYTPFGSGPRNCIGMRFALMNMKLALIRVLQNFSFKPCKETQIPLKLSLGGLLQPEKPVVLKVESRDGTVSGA
Chain of CYP2C9 (P11712 whole entry): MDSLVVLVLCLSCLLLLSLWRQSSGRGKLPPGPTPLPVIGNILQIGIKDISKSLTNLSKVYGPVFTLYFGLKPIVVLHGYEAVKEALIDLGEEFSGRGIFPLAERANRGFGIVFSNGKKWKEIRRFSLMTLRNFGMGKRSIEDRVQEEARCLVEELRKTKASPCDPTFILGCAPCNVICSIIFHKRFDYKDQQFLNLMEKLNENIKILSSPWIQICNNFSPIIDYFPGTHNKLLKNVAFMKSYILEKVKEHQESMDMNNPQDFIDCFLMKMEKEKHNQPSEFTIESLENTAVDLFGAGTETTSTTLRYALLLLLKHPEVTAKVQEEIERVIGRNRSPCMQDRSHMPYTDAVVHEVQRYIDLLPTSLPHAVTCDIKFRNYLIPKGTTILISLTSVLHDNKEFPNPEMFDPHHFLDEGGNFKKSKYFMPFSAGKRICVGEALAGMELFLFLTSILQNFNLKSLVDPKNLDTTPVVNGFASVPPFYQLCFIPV

- Activity [4]: 36%
- inhibition at 10 µM [5]: 15%
- Activity [11]: 10%
- solubility [12]: > 1500 µg/mL
- solubility [14]: > 1500 µg/mL
- IC50 [17]: 0.166 µM
- Papp A→B [18]: 0.72 ×10⁻⁶ cm/s
- inhibition at 10 µM [21]: 32%
- efflux ratio [24]: 2.2
- solubility [25]: > 1500 µg/mL
- solubility [26]: > 1500 µg/mL
- IC50 [27]: 13.4 µM
SMILES: CCN(CC)Cc1c(O)c(OC)c(O)c2c1C(=O)O[C@@H]1[C@@H](O)[C@H](O)[C@@H](CO)O[C@@H]21
- inhibition [1]: Dose-dependent effect
- Activity [2]: 585 pg/mL
- inhibition [3]: Active
- Activity [6]: 102 pg/mL
- inhibition [7]: Dose-dependent effect
- inhibition at 10 µM [8]: 41%
- inhibition in vivo at 30 mg/kg [9]: 28%
- inhibition [10]: Active
- inhibition [13]: Active
- IC50 [15]: 110 µM
- Activity [16]: 5 µM
- inhibition [19]: Active
- inhibition [20]: Active
- Activity [22]: 388 pg/mL
- inhibition [23]: Dose-dependent effect
- inhibition [28]: Active
- selectivity ratio [29]: > 400
- inhibition at 10 µM [30]: 47.9%
- inhibition [31]: Active
